The text below walks through data of patent US20060178415A1, “Azole derivatives as antifungal agents” (priority 2002, published 2006).

In test [1] the test system is ergosterol P^450DM in A. fumigatus lysates. The settings on record: cited from earlier work.
In test [2] the target is T1, ergosterol P^450DM in C. albicans lysates (Candida albicans, UniProt P10613).
T1 construct: host or cells: C. albicans lysate
Particulars: cited from earlier work.

The next test deals with A. fum. Briefly: In vitro antifungal MIC, NCCLS M38P broth method in RPMI 1640/MOPS pH 7. The test is classed as cell-based, Aspergillus fumigatus. The settings on record: Aspergillus fumigatus. The text has this:
The in vitro evaluation of the antifungal activity of the compound of this invention (as shown in Table I) can be performed by determining the minimum inhibitory concentration (MIC) which is the concentration of the test compound in Rosewell Park Memorial Institute (RPMI) 1640 liquid medium buffered with 3-(Morpholino)propane sulfonic acid (MOPS) to pH 7, at which there is significant inhibition of the particular fungi. In practice the National Committee for Clinical Laboratory Standard (NCCLS) M27A document for Candida and Cryptococcus and M38P for Aspergillus was used to determine the MIC and readings recorded only when the Quality Control results fell into the acceptable range. After MIC results had been recorded, 100 μL from each of the well showing no growth was spread over Sabouraud Dextrose Agar (SDA) to determine the minimum fungicidal concentration (MFC).

Where [3] appears, read: A. fumigatus strain 1008, RPMI 1640, MOPS pH 7, read-out: MIC (A. fum.) 1008.
[4] abbreviates: A. fumigatus strain Si-l, RPMI 1640, MOPS pH 7, read-out: MIC (A. fum.) Si-l.

Values after ≈ are worked out from the molar mass of the structure shown. Where two headings read alike, the source gives them in different places.

T1 sequence (P10613 whole entry): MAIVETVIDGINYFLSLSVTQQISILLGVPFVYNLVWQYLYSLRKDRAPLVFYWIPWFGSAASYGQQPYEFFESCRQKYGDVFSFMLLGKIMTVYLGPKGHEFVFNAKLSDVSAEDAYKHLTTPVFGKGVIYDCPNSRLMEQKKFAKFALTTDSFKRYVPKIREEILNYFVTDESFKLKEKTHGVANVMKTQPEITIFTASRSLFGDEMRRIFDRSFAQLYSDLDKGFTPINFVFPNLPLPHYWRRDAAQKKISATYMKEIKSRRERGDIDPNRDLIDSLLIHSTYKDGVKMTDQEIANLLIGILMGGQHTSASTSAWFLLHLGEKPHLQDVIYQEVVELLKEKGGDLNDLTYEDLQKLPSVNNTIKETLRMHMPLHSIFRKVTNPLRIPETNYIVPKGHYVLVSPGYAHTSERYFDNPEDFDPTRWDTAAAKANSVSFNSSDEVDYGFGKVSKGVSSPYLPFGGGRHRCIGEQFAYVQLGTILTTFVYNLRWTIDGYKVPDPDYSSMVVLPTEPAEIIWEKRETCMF

Take `C[C@@H](c1ncncc1F)[C@](O)(Cn1cncn1)c1ccc(F)cc1F` [Voriconazole]: the figures for the “fold greater inhibition of ergosterol P450DM compared to fluconazole” value in test [1] and in test [2] were 160 fold and 1.6 fold, respectively.
By MIC is commonly meant the least concentration at which growth counts as inhibited. For the compound `C[C@@H](N(N)C(=S)Nc1ccccc1)[C@](O)(Cn1cncn1)c1ccc(F)cc1F` [Compound No. 29, 2-[(1R,2R)-2-(2,4-difluorophenyl)-2-hydroxy-1-methyl-3-(1H-1,2,4-triazol-1-yl)propyl]-4-phenyl thiosemicarbazide], the MIC in the test on A. fum. (setting [3]) and in the test with A. fum. (setting [4]) was more than 16 µg/mL in each case.
As for `C[C@@H](N(N)C(=S)Nc1ccc(Cl)cn1)[C@](O)(Cn1cncn1)c1ccc(F)cc1F` [Compound No. 37, 2-[(1R,2R)-2-(2,4-Difluorophenyl)-2-hydroxy-1-methyl-3-(1H-1,2,4-triazol-1-yl)propyl]-4-[3-chloropyridin-6-yl]thiosemicarbazide], the results for the MIC in the test on A. fum. (setting [3]) and with A. fum. (setting [4]) were 0.5 µg/mL (≈ 1.1 µM) and 1 µg/mL (≈ 2.2 µM), respectively.
The corresponding values for `C[C@@H](N(NC(=O)OC(C)(C)C)C(=S)Nc1ccc(OCC(F)(F)C(F)F)cc1)[C@](O)(Cn1cncn1)c1ccc(F)cc1F` [Compound No. 7, 1-t-Butoxycarbonyl-2-[(1R,2R)-2-(2,4-difluorophenyl)-2-hydroxy-1-methyl-3-(1H-1,2,4-triazol-1-yl)propyl]-4-[4-(2,2,3,3-tetrafluoropropoxy)phenyl]thiosemicarbazide] are 4 µg/mL (≈ 6.17 µM) and 4 µg/mL (≈ 6.17 µM).
With `C[C@@H](n1ncn(-c2ccc(OCC(F)(F)C(F)F)cc2)c1=S)[C@](O)(Cn1cncn1)c1ccc(F)cc1F` [Compound No. 42, 2-[(1R,2R)-2-(2,4-difluorophenyl)-2-hydroxy-1-methyl-3-(1,2,4-triazol-1-yl)propyl]-4-[4-(2,2,3,3-tetrafluoropropoxy)phenyl]-(2H,4H)-1,2,4-triazol-3-thione], the MIC stood at 0.25 µg/mL (≈ 0.448 µM) in the test with A. fum. (setting [3]) and 0.125 µg/mL (≈ 0.224 µM) in the test on A. fum. (setting [4]).
On to `C[C@@H](N(NC(=O)OC(C)(C)C)C(=S)Nc1ccc(OC(F)(F)F)cc1)[C@](O)(Cn1cncn1)c1ccc(F)cc1F` [Compound No. 6, 1-t-Butoxycarbonyl-2-[(1R,2R)-2-(2,4-difluorophenyl)-2-hydroxy-1-methyl-3-(1H-1,2,4-triazol-1-yl)propyl]-4-[4-trifluoromethoxyphenyl]thiosemicarbazide], for which the MIC in the test with A. fum. (setting [3]) and in the test on A. fum. (setting [4]) was 8 µg/mL (≈ 13.3 µM) each time.
On to `C[C@@H](n1ncn(-c2ccc(Cl)cn2)c1=S)[C@](O)(Cn1cncn1)c1ccc(F)cc1F` [Compound No. 55, 2-[(1R,2R)-2-(2,4-Difluorophenyl)-2-hydroxy-1-methyl-3-(1H-1,2,4-triazol-1-yl)propyl]-4-[3-chloropyridin-6-yl]-(2H,4H)-1,2,4-triazol-3-thione], for which the MIC with A. fum. (setting [3]) was 4 µg/mL (≈ 8.62 µM); in the test with A. fum. (setting [4]) it was 2 µg/mL (≈ 4.31 µM).
For the compound `C[C@@H](n1ncn(-c2ccc(O)cc2)c1=S)[C@](O)(Cn1cncn1)c1ccc(F)cc1F` [Compound No. 41, 2-[(1R,2R)-2-(2,4-difluorophenyl)-2-hydroxy-1-methyl-3-(1,2,4-triazol-1-yl)propyl]-4-[4-hydroxyphenyl]-(2H,4H)-1,2,4-triazol-3-thione], the MIC in the test on A. fum. (pH 7, read-out: MIC (A. fum.) 1008) was more than 16 µg/mL; in the test on A. fum. (pH 7, read-out: MIC (A. fum.) Si-l), more than 16 µg/mL.
Take `C[C@@H](N(N)C(=S)Nc1ccc(C(F)(F)F)cc1)[C@](O)(Cn1cncn1)c1ccc(F)cc1F` [Compound No. 33, 2-[(1R,2R)-2-(2,4-difluorophenyl)-2-hydroxy-1-methyl-3-(1H-1,2,4-triazol-1-yl)propyl]-4-[4-trifluoromethylphenyl]thiosemicarbazide]: the minimal inhibitory concentration (MIC) with A. fum. (setting [3]) is 4 µg/mL (≈ 8.22 µM); in the test on A. fum. (setting [4]), 2 µg/mL (≈ 4.11 µM).
